Laboratory results published in patent EP1214940B1, “Methods of enhancing the therapeutic activity of NSAIDs and compositions of zwitterionic phospholipids useful therein” (Board of Regents, The University of Texas System, priority 1995, dated 1996).
Where two headings read alike, the source gives them in different places. Marks after values point to notes of the source that are not given here.

Legend:
[1] = format: physicochemical; conditions: NSAID sodium salt 100mM, 25°C, neutral conditions, alone or sonicated with 0.5 mM DPPC or DPPG; the sodium-salicylate line is with DPPC; FIG. 3
Description: The diffusion of aspirin (alone and complexed with phospholipid) from water into cyclohexane was used as a model to estimate the membrane permeability of the drug.
The sodium salt of ASA (also salicylate) was dissolved in 5 ml of water at a final concentration of 100mM (pH adjusted to 6.0) and gently stirred at 25°C. An equal volume of cyclohexane was layered over the aqueous solution and the entry of the NSAID into the organic phase was monitored fluorometrically over time. In order to determine the effect of phospholipid association on the lipid permeability of the NSAID, ASA (or salicylate) at the above concentration was sonicated in the presence of 0.5 mM phospholipid (DPPC or DPPG) in water (adjusted to a pH of 7), and its rate of diffusion into the cyclohexane phase was measured fluorometrically. […] This entire process could be completed in < 30 seconds.

[2] = tested on: rats; test: Acute gastric lesions in rats after salicylate-based NSAID and 0.6 N HCl challenge; format: in vivo, male Sprague Dawley rats; conditions: intragastrically administered in association with DPPC versus without; rats challenged with 0.6N HCl; FIG. 4A
Description: Ten minutes later, the rats were intragastrically challenged with 1 ml of 0.6 N HCI.
One of a number of NSAIDs was intragastrically administered to rats alone or preassociated with an equimolar concentration of DPPC or Phospholipon 90 G (purified soya lecithin, prepared by Nattermann GmbH of Cologne Germany) in several models of acute and chronic injury of the upper GI tract. Two contrasting animal models were employed to determine the ability of DPPC to protect against acute NSAID injury to the GI tract. For salicylate-based NSAIDs, which primarily induce stomach injury, gastric lesions were scored in fasted rats who were initially treated with aspirin or salicylate alone or complexed with DPPC and challenged 10 minutes later with a supra-physiological dose of HCl. For non-salicylate NSAIDs (indomethacin, diclofenac and naproxen) which predominantly induce injury to the mid-distal regions of the small intestine, the quantity of intraluminal blood was assessed in the distal half of the small intestine of rats who were pre- and post-treated with the Nitric Oxide synthetase inhibitor, L-NAME (N-nitro-L-arginine methyl ester).

[3] = tested on: rats; test: Rat fever model (Brewer's yeast), antipyretic activity by rectal temperature; format: in vivo; conditions: for enhancement in anti-pyretic activity of the NSAID/DPPC complex compared to the NSAID alone: sodium salts complexed with equimolar DPPC, first three hours after intragastric administration
Description: Similar antipyretic analyses were performed with the sodium salts of the following NSAIDs: diclofenac (10 mg/kg), indomethacin (10 mg/kg) and naproxen (30 mg/kg), alone and complexed with an equimolar concentration of DPPC. All test solutions were titrated to a pH of 4.5 prior to intragastric administration. Rectal temperatures were monitored in conscious, restrained rats at all indicated times.
The ability of NSAIDs (administered alone and complexed with DPPC) to reduce fever in rats was determined.

[4] = tested on: Foreign-Body Granuloma Formation in Rats; test: Foreign-body granuloma formation in rats, low dose aspirin (9 mg/kg) alone or with phospholipid/neutral lipids; format: in vivo; conditions: aspirin 9 mg/kg intragastric twice a day, 5 doses, starting five days after implantation; (n); spread in next table row
From the text: Sterile tared string was surgically implanted. Five days later rats were intragastrically administered twice a day with either saline, ASA alone, or ASA lipid mixtures.

[5] = tested on: Platelet Aggregation; test: Ristocetin platelet aggregation test; format: cell-based
[6] = tested on: Foreign-Body Granuloma Formation; test: Rat foreign-body granuloma formation (implanted cotton string), two-week daily treatment; format: in vivo, rats; conditions: two weeks, (dry weight of string with adherent granuloma tissue - dry weight of string)/dry weight of string
From the text: Sterile tared cotton string was surgically implanted (bilaterally) under the abdominal skin of ether anesthetized rats on day 1 of the study period, and then randomly placing rats in a group to be daily treated with saline, aspirin or the NSAID complexed with Phospholipon 90G over a two-week period.
At the completion of the study period the string with the adherent granuloma tissue was surgically dissected from the euthanized rats and dried in a vacuum for several days at room temperature, until a baseline dry weight was obtained. The difference between this value and the initial dry weight of the string prior to implantation divided by the latter value provided an estimate of the weight of granuloma tissue.

[7] = tested on: rats; format: in vivo; conditions: aspirin 90mg/kg daily intragastric over 2 weeks, (n) rats/group
Description: Rats were treated with ASA over a two week period to investigate the chronic effects of NSAID exposure (in the presence and absence of phospholipids) on hematocrit, gastric mucosal hydrophobicity, and granuloma formation. […] The test solutions (saline, ASA and ASA/Phospholipon 90G complex) were intragastrically administered between 8AM - 9AM daily during the two week study period. In these chronic exposure experiments, ASA was complexed with an equimolar concentration of Phospholipon 90G (purified soya lecithin, prepared and obtained from Nattermann GmbH of Cologne, Germany) instead of DPPC. At the completion of the study period, blood was collected into a capillary tube for the determination of hematocrit and the stomach was excised for contact angle analysis.
Contact angle analysis was performed with the use of a goniometer on excised gastric mucosal tissue, that was lightly blotted and dried, as previously outlined (Hills et al., 1983; Goddard et al., 1987; Goddard et al., 1990). Briefly, this was accomplished by applying a droplet of water (~ 5µl) to the tissue surface, and employing the telescopic eyepiece of the goniometer to measure the maximal angle that is dissected at the triple point, where the solid/liquid/ and air interface meet.

CC(=O)Oc1ccccc1C(=O)O [ASA, acetyl-salicylic acid]
passive diffusion (flux) from water into cyclohexane [1]: negligible
injurious potential to induce gastric lesions [2]: remarkably decreased
antipyretic activity ([3]; ASA 4.5 mg/kg (subthreshold), alone or complexed with equimolar DPPC, FIG. 9): no antipyretic activity alone
antipyretic activity ([3]; ASA 9.0 mg/kg (subthreshold), intragastric, alone or with equimolar phospholipid, FIG. 6 (five hour period) and FIG. 8): does not have significant antipyretic activity
antipyretic activity after antisecretory pre-treatment ([3]; aspirin 20 mg/kg (FIG. 22: 18 mg/kg) in conjunction with proton pump inhibitor omeprazole (Prilosec), IP 150 mg/kg two hours before): failed to reduce fever
antipyretic activity after antisecretory pre-treatment ([3]; aspirin 20 mg/kg (FIG. 23: 18 mg/kg) in conjunction with Ranitidine (Zantac), IP 2 mg/kg 1 hour before): failed to reduce fever
antipyretic activity ([3]; aspirin alone at doses of < 10 mg/kg, 4 hour study period, FIG. 7): failed to reduce the fever
Foreign-Body Granuloma Formation [4]: 3.89(8)
activity at 10 µM ([5]; read-out: % Platelet Aggregation, High Ristocetin (1.5 mg/ml) Test, ASA 0.01mM, DPPC equimolar where added): 100%
activity at 100 µM ([5]; read-out: % Platelet Aggregation, High Ristocetin (1.5 mg/ml) Test, ASA 0.1 mM, DPPC equimolar where added): 83%
activity at 1000 µM ([5]; read-out: % Platelet Aggregation, High Ristocetin (1.5 mg/ml) Test, ASA 1.0 mM, DPPC equimolar where added): 95%
activity at 1000 µM ([5]; read-out: % Platelet Aggregation, High Ristocetin (1.5 mg/ml) Test, ASA 1.0 mM, second study, DPPC equimolar where added): 100%
activity at 10 µM ([5]; read-out: % Platelet Aggregation, Low Ristocetin (0.75) mg/ml Test, ASA 0.01mM, DPPC equimolar where added): 65%
activity at 100 µM ([5]; read-out: % Platelet Aggregation, Low Ristocetin (0.75) mg/ml Test, ASA 0.1mM, DPPC equimolar where added): 26%
activity at 1000 µM ([5]; read-out: % Platelet Aggregation, Low Ristocetin (0.75) mg/ml Test, ASA 1.0mM, second study, DPPC equimolar where added): 39%
activity at 1000 µM ([5]; read-out: % Platelet Aggregation, Low Ristocetin (0.75) mg/ml Test, ASA 1.0mm, DPPC equimolar where added): 80%
Granuloma Formation ([6]; ASA 90 mg/kg): 1.90 ± 0.10^b
Granuloma Formation ([6]; ASA 140 mg/kg): 1.07 ± 0.09^b
Gastric Mucosal Hydrophobicity (degrees, Contact Angle) [7]: 15.8 ± 6.6^c(6) degrees
Hematocrit [7]: 47.8 ± 0.2^c(10)

CCCCCCCCCCCCCCCC(=O)OCC(COP(=O)([O-])OCC[N+](C)(C)C)OC(=O)CCCCCCCCCCCCCCC (stereo not drawn) [DPPC, dipalmitoyl phosphatidylcholine]
activity at 1000 µM ([5]; High Ristocetin (1.5 mg/ml) Test, ASA 0.00, DPPC alone at 1 mM, read-out: % Platelet Aggregation): 100%
activity at 1000 µM ([5]; Low Ristocetin (0.75) mg/ml Test, ASA 0.00, DPPC alone at 1 mM, read-out: % Platelet Aggregation): 94%

O=C(O)Cc1ccccc1Nc1c(Cl)cccc1Cl [diclofenac, 2-(2,6-dichlorophenylamino)-phenylacetic acid]
anti-pyretic activity with DPPC versus NSAID alone ([3]; diclofenac 10 mg/kg with DPPC, FIG. 20): ability of DPPC to enhance the anti-pyretic activity
enhancement in anti-pyretic activity of the NSAID/DPPC complex compared to the NSAID alone [3]: -0.29 °C

COc1ccc2c(c1)c(CC(=O)O)c(C)n2C(=O)c1ccc(Cl)cc1 [indomethacin, acetic acid]
anti-pyretic activity with DPPC versus NSAID alone ([3]; indomethacin 10 mg/kg with DPPC, FIG. 18): ability of DPPC to enhance the anti-pyretic activity of ASA was seen
enhancement in anti-pyretic activity of the NSAID/DPPC complex compared to the NSAID alone [3]: -0.28 °C

COc1ccc2cc([C@H](C)C(=O)O)ccc2c1 [naproxen, 2-(6-methoxy-2-naphthyl)-propinic acid]
anti-pyretic activity with DPPC versus NSAID alone ([3]; naproxen 25 mg/kg dose with DPPC, FIG. 19): ability of DPPC to enhance the anti-pyretic activity
enhancement in anti-pyretic activity of the NSAID/DPPC complex compared to the NSAID alone [3]: -0.30 °C

O=C(O)c1ccccc1O [salicylate, salicylic acid]
injurious potential to induce gastric lesions [2]: remarkably decreased
anti-pyretic activity with DPPC versus NSAID alone ([3]; salicylic acid 70 mg/kg dose with DPPC, FIG. 21): ability of DPPC to enhance the anti-pyretic activity
